Laboratory results taken from patent publication US20220040129A1, “TREATMENT OF HYPERAMMONEMIA IN PATIENTS WITH RENAL INSUFFICIENCY” (RECORDATI S.p.A., priority 2019, published 2022).
Read-outs that look alike come from different tables or passages of the source.

Key:
[1] = Pharmacokinetics in healthy subjects after oral administration (radiolabeled and non-radiolabeled); assay type: in vivo, human; conditions: for half-life / CL renal: in vivo; for half-life / CL renal / Tmax: po
human MATE2-K = human MATE2-K (Homo sapiens, UniProt Q86VL8); experiment: In vitro transporter inhibition; assay type: in vitro ADME
human MATE2-K, sequence (Q86VL8 1-566 isoform Q86VL8-3): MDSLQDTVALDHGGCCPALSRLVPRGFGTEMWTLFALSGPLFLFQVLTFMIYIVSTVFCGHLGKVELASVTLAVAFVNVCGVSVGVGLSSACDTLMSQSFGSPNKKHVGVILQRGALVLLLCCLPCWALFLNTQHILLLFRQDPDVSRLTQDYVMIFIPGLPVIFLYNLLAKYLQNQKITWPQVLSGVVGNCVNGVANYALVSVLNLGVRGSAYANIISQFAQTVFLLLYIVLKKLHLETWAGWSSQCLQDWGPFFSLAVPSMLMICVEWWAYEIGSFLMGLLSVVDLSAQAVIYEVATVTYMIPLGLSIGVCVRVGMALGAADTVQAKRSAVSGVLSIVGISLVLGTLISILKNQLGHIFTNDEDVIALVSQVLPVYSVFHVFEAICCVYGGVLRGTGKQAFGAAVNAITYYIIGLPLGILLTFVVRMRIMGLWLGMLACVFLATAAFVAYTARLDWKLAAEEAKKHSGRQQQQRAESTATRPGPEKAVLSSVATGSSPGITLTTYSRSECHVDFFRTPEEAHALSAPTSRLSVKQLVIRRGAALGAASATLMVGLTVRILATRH
Description: (§1) In vitro drug interaction studies were performed with human transporters. […] Potential interactions with inhibitors of the OAT1 transporter were considered clinically irrelevant.

human OCT2 = biological target: T1, human OCT2 (Homo sapiens, UniProt O15244); experiment: In vitro transporter inhibition; assay type: in vitro ADME
T1 sequence (O15244 1-555): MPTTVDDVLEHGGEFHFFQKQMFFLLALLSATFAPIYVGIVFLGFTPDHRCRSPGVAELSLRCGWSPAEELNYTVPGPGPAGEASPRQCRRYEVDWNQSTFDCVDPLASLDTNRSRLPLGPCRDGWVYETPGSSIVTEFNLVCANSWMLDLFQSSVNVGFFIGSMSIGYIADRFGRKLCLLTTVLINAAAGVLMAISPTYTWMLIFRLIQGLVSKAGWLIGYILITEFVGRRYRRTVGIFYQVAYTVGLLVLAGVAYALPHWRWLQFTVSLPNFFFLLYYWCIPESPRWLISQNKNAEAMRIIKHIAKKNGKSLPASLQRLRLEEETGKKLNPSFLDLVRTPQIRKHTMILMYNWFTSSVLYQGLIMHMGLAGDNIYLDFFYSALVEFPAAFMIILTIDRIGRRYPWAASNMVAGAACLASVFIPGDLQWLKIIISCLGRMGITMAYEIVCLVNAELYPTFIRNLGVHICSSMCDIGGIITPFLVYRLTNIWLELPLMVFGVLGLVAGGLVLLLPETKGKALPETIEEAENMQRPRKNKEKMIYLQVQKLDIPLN
Description: as §1

human BCRP = biological target: T2, human BCRP (Homo sapiens, UniProt Q9UNQ0); experiment: In vitro transporter inhibition; assay type: in vitro ADME
T2 sequence (Q9UNQ0 1-655): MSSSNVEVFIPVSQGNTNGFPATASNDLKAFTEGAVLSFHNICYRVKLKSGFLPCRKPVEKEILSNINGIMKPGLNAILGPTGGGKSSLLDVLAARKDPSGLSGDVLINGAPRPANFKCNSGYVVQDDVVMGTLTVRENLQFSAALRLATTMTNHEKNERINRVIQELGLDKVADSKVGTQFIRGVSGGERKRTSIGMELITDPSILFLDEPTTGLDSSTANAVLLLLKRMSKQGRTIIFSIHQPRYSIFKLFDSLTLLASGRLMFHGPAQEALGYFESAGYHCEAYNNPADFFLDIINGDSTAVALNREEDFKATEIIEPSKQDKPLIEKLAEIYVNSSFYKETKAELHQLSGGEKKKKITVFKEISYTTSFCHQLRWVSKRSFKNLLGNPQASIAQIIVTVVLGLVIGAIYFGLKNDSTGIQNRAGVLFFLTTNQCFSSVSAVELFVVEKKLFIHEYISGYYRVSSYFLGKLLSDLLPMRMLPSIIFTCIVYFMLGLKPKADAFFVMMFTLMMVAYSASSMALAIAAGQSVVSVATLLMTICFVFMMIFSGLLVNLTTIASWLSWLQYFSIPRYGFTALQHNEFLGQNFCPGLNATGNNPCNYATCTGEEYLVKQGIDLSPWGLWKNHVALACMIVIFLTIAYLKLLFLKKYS
Description: as §1

human OAT1 = biological target: T3, human OAT1 (Homo sapiens, UniProt Q4U2R8); experiment: In vitro transporter inhibition; assay type: in vitro ADME
T3 sequence (Q4U2R8 1-563): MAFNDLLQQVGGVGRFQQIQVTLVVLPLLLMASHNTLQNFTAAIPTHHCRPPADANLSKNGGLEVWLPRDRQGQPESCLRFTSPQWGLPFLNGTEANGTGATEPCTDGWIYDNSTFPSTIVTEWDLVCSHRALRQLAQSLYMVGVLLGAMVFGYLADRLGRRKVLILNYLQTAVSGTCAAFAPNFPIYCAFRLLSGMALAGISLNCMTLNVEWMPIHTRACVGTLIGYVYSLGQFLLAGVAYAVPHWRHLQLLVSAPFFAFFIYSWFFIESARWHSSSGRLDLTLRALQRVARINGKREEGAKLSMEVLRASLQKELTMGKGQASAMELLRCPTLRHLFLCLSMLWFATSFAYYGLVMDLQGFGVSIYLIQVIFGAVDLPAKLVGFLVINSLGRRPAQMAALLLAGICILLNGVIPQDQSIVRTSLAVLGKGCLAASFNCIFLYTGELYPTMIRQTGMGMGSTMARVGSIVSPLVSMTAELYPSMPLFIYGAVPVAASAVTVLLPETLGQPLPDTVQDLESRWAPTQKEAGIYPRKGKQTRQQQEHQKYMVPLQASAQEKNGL
Description: as §1

human MATE1 = biological target: T4, human MATE1 (Homo sapiens, UniProt Q96FL8); experiment: In vitro transporter inhibition; assay type: in vitro ADME
T4 sequence (Q96FL8 1-570): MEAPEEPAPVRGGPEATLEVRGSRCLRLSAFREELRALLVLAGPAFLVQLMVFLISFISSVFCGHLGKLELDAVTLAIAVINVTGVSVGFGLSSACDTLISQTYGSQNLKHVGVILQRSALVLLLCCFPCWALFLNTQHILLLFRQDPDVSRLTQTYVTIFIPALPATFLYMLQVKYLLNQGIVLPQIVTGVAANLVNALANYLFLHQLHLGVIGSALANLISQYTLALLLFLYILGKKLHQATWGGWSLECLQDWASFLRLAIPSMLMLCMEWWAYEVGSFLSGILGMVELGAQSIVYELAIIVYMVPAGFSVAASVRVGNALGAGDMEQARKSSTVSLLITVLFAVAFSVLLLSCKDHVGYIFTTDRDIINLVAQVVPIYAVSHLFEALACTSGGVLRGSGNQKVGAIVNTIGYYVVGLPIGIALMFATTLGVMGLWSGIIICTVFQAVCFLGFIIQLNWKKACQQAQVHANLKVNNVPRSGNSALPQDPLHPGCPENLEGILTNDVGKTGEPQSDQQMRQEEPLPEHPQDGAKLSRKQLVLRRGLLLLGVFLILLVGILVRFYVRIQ
Description: as §1

[2] = single radiolabeled oral dose of 100 mg/kg

NC(=O)N[C@@H](CCC(=O)O)C(=O)O [carglumic acid, N-carbamoyl-L-glutamic acid]
24-hour urinary excretion ([1]; after oral administration): 4.5 % of the dose | Apparent total clearance, median ([1]; after oral administration): 5.7 L/min | Apparent volume of distribution, median ([1]; after oral administration): 2657 L | Apparent volume of distribution, median per kg ([1]; after oral administration): 35.9 L/kg | Apparent volume of distribution, range ([1]; after oral administration): 1616 to 5797 L | half-life ([1]; human, after oral administration, read-out: Initial half-life (converted)): ~5.6 h | CL renal ([1]; human, after oral administration, read-out: Renal clearance, median): 290 mL/min | CL renal ([1]; human, after oral administration, read-out: Renal clearance, range): 204 to 445 mL/min | half-life ([1]; human, after oral administration, read-out: Terminal half-life (converted)): ~22 h | bioavailability ([1]; human, plasma, 100 mg/kg, oral, read-out: Absolute bioavailability): 9.9% | Tmax ([1]; human, plasma, read-out: Tmax, median): 3 h | Tmax ([1]; human, plasma, read-out: Tmax, range): 2 to 4 h | Dose excreted unchanged in the urine [1, 2]: 9 % of the dose | Dose recovered unchanged in the feces [1, 2]: up to 60 % of the dose | Inhibition of human MATE2-K uptake transporter (human MATE2-K): not an inhibitor | Inhibition of human OCT2 uptake transporter (human OCT2): not an inhibitor | Inhibition of human BCRP efflux transporter (human BCRP): not an inhibitor | Inhibition of human OAT1 uptake transporter (human OAT1): not an inhibitor | Inhibition of human MATE1 uptake transporter (human MATE1): not an inhibitor
